Source: patent US9512120B2, “Microbicidally active imidazopyridine derivatives” (Syngenta Participations AG, priority 2013, dated 2016)

Tests used:
[1] = tested on: Puccinia recondita f. sp. Tritici; assay: Puccinia recondita f. sp. tritici / wheat / leaf disc preventative (brown rust); format: in vivo; details: foliar, wheat leaf segments cv Kanzler, inoculated 1 day after application, assessed 7-9 days after application, read-out: control of Puccinia recondita f. sp. Tritici (percent disease control compared to untreated)
Description: Puccinia recondita f. Sp. Tritici/Wheat/Leaf Disc Preventative (Brown Rust): Wheat leaf segments cultivated variety (cv) Kanzler were placed on agar in 24-well plates and sprayed with formulated test compound diluted in water at an application rate of 200 ppm. The leaf disks were inoculated with a spore suspension of the fungus 1 day after application. The inoculated leaf segments were incubated at 19° C. and 75% relative humidity under a light regime of 12/12 h (light/dark) in a climate cabinet and the activity of a compound was assessed as percent disease control compared to untreated when an appropriate level of disease damage appears in untreated check leaf segments (7-9 days after application).

[2] = tested on: Pyrenophora teres; assay: Pyrenophora teres / barley / leaf disc preventative (net blotch); format: in vivo; details: foliar, barley leaf segments cv Hasso, inoculated two days after application, assessed 5-7 days after application, read-out: control of Pyrenophora teres (disease control compared to untreated)
Description: Pyrenophora Teres/Barley/Leaf Disc Preventative (Net Blotch): Barley leaf segments cv Hasso are placed on agar in a 24-well plate and sprayed with formulated test compound diluted in water at an application rate of 200 ppm. The leaf segments are inoculated with a spore suspension of the fungus two days after application of the test solution. The inoculated leaf segments are incubated at 20° C. and 65% relative humidity under a light regime of 12/12 h (light/dark) in a climate cabinet and the activity of a compound is assessed as disease control compared to untreated when an appropriate level of disease damage appears in untreated check leaf segments (5-7 days after application).

[3] = tested on: Mycosphaerella graminicola (Septoria tritici); assay: Mycosphaerella graminicola (Septoria tritici) / liquid culture (Septoria blotch); format: cell-based; details: Zymoseptoria tritici, PDB, 24° C., 4-5 days after application, read-out: control of Mycosphaerella graminicola (inhibition of growth, photometric)
Description: (§1) Mycosphaerella graminicola (Septoria tritici)/Liquid Culture (Septoria Blotch): Conidia of the fungus from cryogenic storage were directly mixed into nutrient broth (PDB potato dextrose broth). After placing a DMSO solution of test compound into a 96-well microtiter plate at an application rate of 200 ppm, the nutrient broth containing the fungal spores was added. The test plates were incubated at 24° C. and the inhibition of growth was determined photometrically 4-5 days after application.

[4] = tested on: Thanatephorus cucumeris (Rhizoctonia solani); assay: Thanatephorus cucumeris (Rhizoctonia solani) / liquid culture (foot rot, damping-off); format: cell-based; details: PDB, 24° C., 3-4 days after application, read-out: control of Thanatephorus cucumeris (inhibition of growth, photometric)
Description: Thanatephorus cucumeris (Rhizoctonia solani)/Liquid Culture (Foot Rot, Damping-Off): Mycelia fragments of a newly grown liquid culture of the fungus are directly mixed into nutrient broth (PDB potato dextrose broth). After placing a DMSO solution of the test compounds into a 96-well microtiter plate at an application rate of 200 ppm, the nutrient broth containing the fungal material was added. The test plates were incubated at 24° C. and the inhibition of growth was determined photometrically 3-4 days after application.

[5] = tested on: Botryotinia fuckeliana (Botrytis cinerea); assay: Botryotinia fuckeliana (Botrytis cinerea) / liquid culture (gray mould); format: cell-based; details: Vogels broth, 24° C., 3-4 days after application, read-out: control of Botryotinia fuckeliana (inhibition of growth, photometric)
Description: as §1, with “Botryotinia Fuckeliana (Botrytis cinerea)/Liquid” for “Mycosphaerella graminicola (Septoria tritici)/Liquid”, “(Gray Mould):” for “(Septoria Blotch):”, “(Vogels” for “(PDB potato dextrose”, “3-4” for “4-5”

SMILES	pest or weed control at 200 ppm [1]	pest or weed control at 200 ppm [2]	inhibition at 20 ppm [3]	inhibition at 20 ppm [4]	inhibition at 20 ppm [5]
CCn1c(-n2ncnc2N)nc2cncc(-c3ccc(Cl)c(Cl)c3)c21 [Compound 36, 2-[7-(3,4-dichlorophenyl)-1-ethylimidazo[4,5-c]pyridin-2-yl]-1,2,4-triazol-3-amine]	≥ 80%	≥ 80%	≥ 80%	≥ 80%	–
CCn1c(-n2ncnc2N)nc2cncc(C=CC3CCCCC3)c21 [Compound 70, 2-[7-(2-cyclohexylethenyl)-1-ethylimidazo[4,5-c]pyridin-2-yl]-1,2,4-triazol-3-amine]	–	≥ 80%	≥ 80%	–	–
CCn1c(-n2ncnc2N)nc2cncc(C(C)=NOc3ccccc3)c21 [Compound 168]	≥ 80%	≥ 80%	≥ 80%	≥ 80%	–
CCn1c(-n2ncnc2N)nc2cncc(-c3cccc(Cl)c3)c21 [Compound 34, 2-[7-(3-chlorophenyl)-1-ethylimidazo[4,5-c]pyridin-2-yl]-1,2,4-triazol-3-amine]	–	≥ 80%	≥ 80%	≥ 80%	≥ 80%
C=C(C)CO/N=C(\C)c1cncc2nc(-n3ncnc3N)n(CC)c12 [Compound 179]	–	–	≥ 80%	≥ 80%	≥ 80%
CCn1c(-n2ncnc2N)nc2cncc(-c3cccc(C(F)(F)F)c3)c21 [Compound 31, 2-[1-ethyl-7-[3-(trifluoromethyl)phenyl]imidazo[4,5-c]pyridin-2-yl]-1,2,4-triazol-3-amine]	–	≥ 80%	–	≥ 80%	≥ 80%
CCn1c(-n2ncnc2N2C(=O)CCC2=O)nc2cncc(C(C)=O)c21 [Compound 113, 1-[2-(7-acetyl-1-ethylimidazo[4,5-c]pyridin-2-yl)-1,2,4-triazol-3-yl]pyrrolidine-2,5-dione]	–	≥ 80%	–	–	–
CCOC(=O)C(C)O/N=C(\C)c1cncc2nc(-n3ncnc3N)n(CC)c12 (stereo not drawn) [Compound 159]	–	–	–	≥ 80%	–
CCn1c(-n2ncnc2N)nc2cncc(-c3cc(C)sc3C)c21 [Compound 52, 2-[7-(2,5-dimethylthiophen-3-yl)-1-ethylimidazo[4,5-c]pyridin-2-yl]-1,2,4-triazol-3-amine]	–	–	≥ 80%	≥ 80%	≥ 80%
CCn1c(-n2ncnc2N)nc2cncc(-c3cccnc3OC)c21 [Compound 58, 2-[1-ethyl-7-(2-methoxypyridin-3-yl)imidazo[4,5-c]pyridin-2-yl]-1,2,4-triazol-3-amine]	–	≥ 80%	–	≥ 80%	–
CCn1c(-n2ncnc2N)nc2cncc(-c3ccc(C)c([N+](=O)[O-])c3)c21 [Compound 44, 2-[1-ethyl-7-(4-methyl-3-nitrophenyl)imidazo[4,5-c]pyridin-2-yl]-1,2,4-triazol-3-amine]	–	–	–	≥ 80%	–
CCn1c(-n2ncnc2N)nc2cncc(/C(C)=N/OCC(C)C)c21 [Compound 162]	≥ 80%	–	≥ 80%	≥ 80%	–
CCn1c(-n2ncnc2N)nc2cncc(-c3cc(C)c(OC)c(C)c3)c21 [Compound 47, 2-[1-ethyl-7-(4-methoxy-3,5-dimethylphenyl)imidazo[4,5-c]pyridin-2-yl]-1,2,4-triazol-3-amine]	≥ 80%	≥ 80%	–	≥ 80%	–
CCn1c(-n2ncnc2N)nc2cncc(-c3ccc(Cl)c(C(F)(F)F)c3)c21 [Compound 49]	–	≥ 80%	≥ 80%	≥ 80%	≥ 80%
CCn1c(-n2ncnc2N)nc2cncc(-c3ccc(C)c(C)c3)c21 [Compound 46, 2-[7-(3,4-dimethylphenyl)-1-ethylimidazo[4,5-c]pyridin-2-yl]-1,2,4-triazol-3-amine]	–	–	≥ 80%	≥ 80%	≥ 80%
Nc1ncnn1-c1nc2cncc(-c3ccccc3Cl)c2n1C1CCCCC1 [Compound 126, 2-[7-(2-chlorophenyl)-1-cyclohexylimidazo[4,5-c]pyridin-2-yl]-1,2,4-triazol-3-amine]	–	–	–	–	≥ 80%
CCn1c(-n2ncnc2N)nc2cncc(-c3ccc(OC)c(F)c3)c21 [Compound 43, 2-[1-ethyl-7-(3-fluoro-4-methoxyphenyl)imidazo[4,5-c]pyridin-2-yl]-1,2,4-triazol-3-amine]	–	≥ 80%	≥ 80%	≥ 80%	≥ 80%
CCn1c(-n2ncnc2N)nc2cncc(-c3ccc(-c4ccc(F)cc4)nc3)c21 [Compound 54, 2-[1-ethyl-7-[6-(4-fluorophenyl)pyridin-3-yl]imidazo[4,5-c]pyridin-2-yl]-1,2,4-triazol-3-amine]	≥ 80%	–	≥ 80%	≥ 80%	≥ 80%
CCn1c(-n2ncnc2N)nc2cncc(-c3ccccc3C(F)(F)F)c21 [Compound 32, 2-[1-ethyl-7-[2-(trifluoromethyl)phenyl]imidazo[4,5-c]pyridin-2-yl]-1,2,4-triazol-3-amine]	–	≥ 80%	–	≥ 80%	–
CCn1c(-n2ncnc2N)nc2cncc(/C(C)=N/OC(C)C)c21 [Compound 167]	≥ 80%	≥ 80%	≥ 80%	≥ 80%	–
Cc1cncc2nc(-n3ncnc3N)n(C3CC3)c12 [Compound 175, 2-(1-cyclopropyl-7-methyl-imidazo[4,5-c]pyridin-2-yl)-1,2,4-triazol-3-amine]	–	≥ 80%	–	–	–
CCn1c(-n2ncnc2N)nc2cncc(C(C)=NOCc3cc(Cl)c(Cl)cc3Cl)c21 [Compound 164]	–	≥ 80%	≥ 80%	≥ 80%	–
CCn1c(-n2ncnc2N)nc2cncc(C=Cc3ccc(C)cc3)c21 [Compound 71, 2-[1-ethyl-7-[2-(4-methylphenyl)ethenyl]imidazo[4,5-c]pyridin-2-yl]-1,2,4-triazol-3-amine]	–	–	–	≥ 80%	–
Nc1ncnn1-c1nc2cncc(-c3ccccc3Cl)c2n1C1CC1 [Compound 125, 2-[7-(2-chlorophenyl)-1-cyclopropylimidazo[4,5-c]pyridin-2-yl]-1,2,4-triazol-3-amine]	–	–	–	≥ 80%	–
Nc1ncnn1-c1nc2cncc(-c3ccc(Cl)cc3Cl)c2n1C1CC1 [Compound 119, 2-[1-cyclopropyl-7-(2,4-dichlorophenyl)imidazo[4,5-c]pyridin-2-yl]-1,2,4-triazol-3-amine]	–	≥ 80%	≥ 80%	≥ 80%	–
CCn1c(-n2ncnc2N)nc2cncc(-c3cc4ccccc4o3)c21 [Compound 51, 2-[7-(1-benzofuran-2-yl)-1-ethylimidazo[4,5-c]pyridin-2-yl]-1,2,4-triazol-3-amine]	–	≥ 80%	–	≥ 80%	–
CCn1c(-n2ncnc2N2C(=O)CCC2=O)nc2cncc(-c3ccc(Cl)cc3Cl)c21 [Compound 114]	–	≥ 80%	–	–	–
CCn1c(-n2ncnc2N)nc2cncc(-c3ccc(C(F)(F)F)nc3)c21 [Compound 63, 2-[1-ethyl-7-[6-(trifluoromethyl)pyridin-3-yl]imidazo[4,5-c]pyridin-2-yl]-1,2,4-triazol-3-amine]	–	≥ 80%	–	≥ 80%	–
CCn1c(-n2ncnc2N)nc2cncc(-c3cnc(Cl)c(C)c3)c21 [Compound 65, 2-[7-(6-chloro-5-methylpyridin-3-yl)-1-ethylimidazo[4,5-c]pyridin-2-yl]-1,2,4-triazol-3-amine]	–	≥ 80%	–	≥ 80%	–
